Measured values: ChEMBL document CHEMBL6178019, “Discovery of CYP1A1 Inhibitors for Host-Directed Therapy against Sepsis” (J Med Chem, 2025)

Columns and labels:
Format in all cases: cell-based
[1] = target: T1, CYP1A1 (Homo sapiens, UniProt P04798); experiment: Inhibition of CYP1A1 in human Caco-2 cells at 5 uM incubated for 12 hrs by EROD assay relative to control
T1 sequence (P04798 whole entry): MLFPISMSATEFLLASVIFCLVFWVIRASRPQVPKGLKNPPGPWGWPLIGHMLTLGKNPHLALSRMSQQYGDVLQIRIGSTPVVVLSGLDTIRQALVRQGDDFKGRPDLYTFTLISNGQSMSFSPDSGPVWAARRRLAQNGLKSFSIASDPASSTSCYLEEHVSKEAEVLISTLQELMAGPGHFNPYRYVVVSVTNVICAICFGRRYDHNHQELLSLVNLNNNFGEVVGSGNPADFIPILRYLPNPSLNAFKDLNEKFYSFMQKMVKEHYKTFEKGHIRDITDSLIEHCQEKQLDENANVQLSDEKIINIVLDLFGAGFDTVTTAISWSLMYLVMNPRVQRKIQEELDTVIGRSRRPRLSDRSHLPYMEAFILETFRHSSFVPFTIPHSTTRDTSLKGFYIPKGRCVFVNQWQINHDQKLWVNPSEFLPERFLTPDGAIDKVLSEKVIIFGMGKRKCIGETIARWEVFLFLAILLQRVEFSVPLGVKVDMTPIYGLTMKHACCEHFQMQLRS

[2] = target: T1, CYP1A1; experiment: Inhibition of CYP1A1 in human Caco-2 cells assessed as relative activity by measuring fold change at 500 nM incubated for 12 hrs by EROD assay relative to control; conditions: read-out: FC
[3] = target: T2, Cytochrome P450 1A1 (Homo sapiens, UniProt P04798); experiment: Inhibition of CYP1A1 in human Caco-2 cells assessed as relative activity by measuring fold change at 5.0 uM incubated for 12 hrs by EROD assay relative to control; conditions: caco-2, 12 h
T2 sequence (P04798 whole entry): T1 sequence (P04798 whole entry)

[4] = target: T3, CYP1A1 (Mus musculus, UniProt P00184); experiment: Inhibition of CYP1A1 in mouse RAW264.7 cells assessed as relative activity by measuring fold change at 500 nM incubated for 12 hrs by EROD assay relative to control; conditions: read-out: FC
T3 sequence (P00184 whole entry): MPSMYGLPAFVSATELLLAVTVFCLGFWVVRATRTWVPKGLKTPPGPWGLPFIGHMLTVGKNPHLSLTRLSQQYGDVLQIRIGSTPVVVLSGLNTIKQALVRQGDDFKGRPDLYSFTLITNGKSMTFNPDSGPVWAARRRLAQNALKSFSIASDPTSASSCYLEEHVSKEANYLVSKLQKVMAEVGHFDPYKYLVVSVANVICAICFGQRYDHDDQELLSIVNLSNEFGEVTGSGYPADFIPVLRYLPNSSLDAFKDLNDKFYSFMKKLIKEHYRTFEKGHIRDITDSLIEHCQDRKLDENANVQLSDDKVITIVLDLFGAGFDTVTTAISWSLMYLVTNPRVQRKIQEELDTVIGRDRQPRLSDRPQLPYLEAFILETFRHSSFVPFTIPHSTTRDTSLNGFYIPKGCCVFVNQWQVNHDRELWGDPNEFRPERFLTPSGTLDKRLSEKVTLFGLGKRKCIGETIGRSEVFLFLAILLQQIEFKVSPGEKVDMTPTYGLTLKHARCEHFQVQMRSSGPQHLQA

[5] = target: T3, CYP1A1; experiment: Inhibition of CYP1A1 in mouse RAW264.7 cells assessed as relative activity by measuring fold change at 5 uM incubated for 12 hrs by EROD assay relative to control; conditions: read-out: FC
[6] = target: T3, CYP1A1; experiment: Inhibition of CYP1A1 in mouse RAW264.7 cells at 5 uM incubated for 12 hrs by EROD assay relative to control
[7] = target: T2, Cytochrome P450 1A1; experiment: Inhibition of CYP1A1 in human Caco-2 cells incubated for 12 hrs by EROD assay; conditions: caco-2, 12 h, at 50 to 5000 nM, dose 50-5000 nM

Row | Structure (SMILES) | inhibition at 12 h, 5 µM [1] [%] | fold induction at 12 h, 0.5 µM [2] | fold change (FC) [3] | fold induction at 12 h, 0.5 µM [4] | fold induction at 12 h, 5 µM [5] | inhibition at 12 h, 5 µM [6] [%] | inhibition (INH) [7]
1 | Cn1c(=O)n(C)c2cc(C(=O)/C=C/c3cccs3)ccc21 | ~80 | 0.45 | 0.18 | 0.38 | 0.23 | ~80 | 
2 | Cn1c(=O)n(C)c2cc(C(=O)/C=C/c3ccsc3)ccc21 | ~80 | 0.43 | 0.19 | 0.58 | 0.32 | ~80 | 
3 | CSc1ccc(/C=C/C(=O)c2ccc3c(c2)n(C)c(=O)n3C)cc1 |  | 0.81 | 0.78 | 0.57 | 0.2 |  | 
4 | C#Cc1ccc(/C=C/C(=O)c2ccc3c(c2)n(C)c(=O)n3C)cc1 |  | 0.22 | 0.07 | 0.63 | 0.19 |  | 
5 | CC(C)=CCC/C(C)=C/COc1c2ccoc2cc2oc(=O)ccc12 [BERGAMOTTIN] |  | 0.19 | 0.05 | 0.44 | 0.18 |  | 
6 | Cn1c(=O)n(C)c2cc(C(=O)/C=C/c3ccc([N+](=O)[O-])o3)ccc21 |  | 0.71 | 0.28 | 0.95 | 0.24 |  | 
7 | Cn1c(=O)n(C)c2cc(C(=O)/C=C/C=C/c3ccccc3)ccc21 |  | 0.82 | 0.35 | 0.62 | 0.44 |  | 
8 | Cn1c(=O)n(C)c2cc(C(=O)/C=C/c3ccccc3)ccc21 |  | 0.71 | 0.28 | 0.95 | 0.22 |  | 
9 | Cn1c(=O)n(C)c2cc(C(=O)/C=C/c3ccccn3)ccc21 |  | 0.83 | 0.88 | 0.9 | 0.16 |  | 
10 | CN(C)c1ccc(/C=C/C(=O)c2ccc3c(c2)n(C)c(=O)n3C)cc1 |  | 0.52 | 0.24 | 1.05 | 0.54 |  | 
11 | Cn1c(=O)n(C)c2cc(C(=O)/C=C/c3ccoc3)ccc21 |  | 0.57 | 0.18 | 0.93 | 0.67 |  | 
12 | Cn1c(=O)n(C)c2cc(C(=O)/C=C/c3ccccc3F)ccc21 | 100 | 0.32 | 0.04 | 1.17 | 1.02 |  | Dose-dependent-effect
13 | C#Cc1cccc(/C=C/C(=O)c2ccc3c(c2)n(C)c(=O)n3C)c1 |  | 0.18 | 0.01 | 1.07 | 0.14 |  | 
14 | Cn1c(=O)n(C)c2cc(C(=O)/C=C/c3ccc(B(O)O)cc3F)ccc21 |  | 0.45 | 0.14 | 1.02 | 0.66 |  | 
15 | Cn1cccc1/C=C/C(=O)c1ccc2c(c1)n(C)c(=O)n2C |  | 0.45 | 0.09 | 1.47 | 1.07 |  | 
16 | Cn1c(=O)n(C)c2cc(C(=O)/C=C/c3ccc(C#N)cc3)ccc21 |  | 0.83 | 0.51 | 0.82 | 0.6 |  | 
17 | Cn1c(=O)n(C)c2cc(C(=O)/C=C/c3cc(F)c(F)cc3F)ccc21 |  | 0.35 | 0.1 | 1.11 | 0.79 |  | 
18 | Cn1c(=O)n(C)c2cc(C(=O)/C=C/c3cn(Cc4ccccc4)c4ccccc34)ccc21 |  | 0.52 | 0.33 | 0.84 | 0.78 |  | 
19 | Cn1c(=O)n(C)c2cc(C(=O)/C=C/c3cccnc3Br)ccc21 |  | 0.63 | 0.22 | 0.94 | 0.22 |  | 
20 | Cn1c(=O)n(C)c2cc(C(=O)/C=C/c3c(F)c(F)c(F)c(F)c3F)ccc21 |  | 0.8 | 0.34 | 0.69 | 0.43 |  | 
21 | CCCCOc1ccc(/C=C/C(=O)c2ccc3c(c2)n(C)c(=O)n3C)cc1 |  | 0.91 | 0.23 | 0.95 | 0.77 |  | 
22 | Cn1c(=O)n(C)c2cc(C(=O)/C=C/c3ccc4ccccc4n3)ccc21 |  | 0.38 | 0.13 | 0.61 | 0.17 |  | 
